The values below come from PMC6364417, “Kinase inhibitor library screening identifies synergistic drug combinations effective in sensitive and resistant melanoma cells” (Journal of Experimental & Clinical Cancer Research : CR, 2019).

Holding throughout (test): Kinase inhibitor library screening, PrestoBlue cell viability, 1 or 10 μM, 72 h
In assay [1] the test system is A375-GP cells (Dabrafenib-resistant). Particulars: A375 GP.
Assay [2] concerns 501Mel-GP cells (Dabrafenib-resistant). Conditions: 501Mel GP.
In assay [3] the test system is A375 cells (parental). Conditions: A375 Parental.
In assay [4] the test system is IGR37-GP cells (Dabrafenib-resistant). Conditions: IGR37 GP.
In assay [5] the test system is 501Mel cells (parental). Particulars: 501Mel Parental. An outline of the steps:
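Kinase inhibitors added at two fixed concentrations; 72 h exposure; PrestoBlue readout; % viability vs untreated; n ≥ 2 per line.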

The test system of assay [6] is IGR37-XP cells (Vemurafenib-resistant). Particulars: IGR37 XP.
Assay [7] deals with A375-XP cells (Vemurafenib-resistant). Particulars: A375 XP.
The subject of assay [8] is IGR37 cells (parental). Particulars: IGR37 Parental.
Assay [9] deals with 501Mel-XP cells (Vemurafenib-resistant). Particulars: 501Mel XP.

The structures appear in SMILES notation.

Consider `CNC(=O)c1cc(Oc2ccc(NC(=O)Nc3ccc(Cl)c(C(F)(F)F)c3)c(F)c2)ccn1` [Regorafenib (BAY 73-4506)], for which the “cell viability (kinase inhibitor library screening)” value in assay [1] (1μΜ, 72 h) is reported as 48.9%; in assay [1] (10μΜ, 72 h), 22.9%; in assay [2] (1μΜ, 72 h), 96.7%; in assay [2] (10μΜ, 72 h), 48.3%; in assay [3] (10μΜ, 72 h) it was 32.8%; in assay [3] (1μΜ, 72 h) it was 96.5%. Also, the “cell viability (kinase inhibitor library screening)” value in [4] (1μΜ, 72 h) is given as 89.9%; in assay [4] (10μΜ, 72 h), 47.7%; in assay [5] (1μΜ, 72 h), 93.5%; in assay [5] (10μΜ, 72 h), 53.2%; in assay [6] (1μΜ, 72 h) it was 88.9%; in assay [6] (10μΜ, 72 h), 14.8%. For the same compound, the “cell viability (kinase inhibitor library screening)” value turned out to be 58.9% in [7] (1μΜ, 72 h); 18.1% in [7] (10μΜ, 72 h); 94.8% in [8] (1μΜ, 72 h); 42.7% in assay [8] (10μΜ, 72 h); 93.6% in assay [9] (1μΜ, 72 h); 47.1% in assay [9] (10μΜ, 72 h).
Turning to `CCCCCCCCCCCCc1ccc(S(=O)(=O)Nc2nncs2)cc1` [PHT-427], the “cell viability (kinase inhibitor library screening)” value worked out at 107.5% in assay [1] (1μΜ, 72 h); 93.5% in [1] (10μΜ, 72 h); 115.7% in assay [2] (1μΜ, 72 h); 95.0% in assay [2] (10μΜ, 72 h); 98.4% in assay [3] (10μΜ, 72 h); 95.0% in [4] (1μΜ, 72 h). The “cell viability (kinase inhibitor library screening)” value in assay [4] (10μΜ, 72 h) was 98.8%; in assay [5] (1μΜ, 72 h) it was 99.9%; in [5] (10μΜ, 72 h) it was 96.2%; in assay [6] (10μΜ, 72 h), 79.8%; in [7] (1μΜ, 72 h), 106.9%; in assay [7] (10μΜ, 72 h), 100.2%. For the same compound, the “cell viability (kinase inhibitor library screening)” value in [8] (10μΜ, 72 h) was determined as 110.3%; in assay [9] (10μΜ, 72 h), 85.4%.
Regarding `CC1(C)CNc2cc(NC(=O)c3cccnc3NCc3ccncc3)ccc21` [Motesanib Diphosphate], the “cell viability (kinase inhibitor library screening)” value in [1] (1μΜ, in %) amounted to 99.4; in assay [1] (10μΜ, in %) it was 89.9; in assay [2] (1μΜ, in %) it was 98.5; in assay [2] (10μΜ, in %), 82.7; in [3] (1μΜ, in %), 105.3; in assay [3] (10μΜ, in %) it was 89.5. In addition, the “cell viability (kinase inhibitor library screening)” value in assay [4] (1μΜ, in %) came to 85.5; in [4] (10μΜ, in %), 85.5; in assay [5] (1μΜ, in %) it was 97.3; in [5] (10μΜ, in %), 94.6; in assay [6] (10μΜ, in %), 78.2; in [7] (1μΜ, in %) it was 109.8. Further, the “cell viability (kinase inhibitor library screening)” value in [7] (10μΜ, in %) is reported as 97.0; in assay [8] (1μΜ, in %), 97.7; in assay [8] (10μΜ, in %), 97.0; in [9] (1μΜ, in %) it was 91.0; in assay [9] (10μΜ, in %), 71.5.
